Source: patent US8481531B2, “Bicyclic heterocyclyl derivatives as FGFR kinase inhibitors for therapeutic use” (Astex Therapeutics Ltd, priority 2009, dated 2013)

What was measured:
VEGFR2 = target: T1, VEGFR2 (Homo sapiens, UniProt P35968); assay: VEGFR2 in vitro kinase inhibitory activity assay (TRF); type: biochemical; details: 0.5 μM ATP, 1 hour; read-out: VEGFR2 IC50(μM) or % I
T1 construct: purchased Upstate
Procedure: (§1) FGFR3, VEGFR2 and PDGFR in vitro Kinase Inhibitory Activity Assays
(§2) Enzymes (from Upstate), prepared at 2× final concentration, were incubated with test compounds, biotinylated Flt3 substrate (biotin-VASSDNEYFYVDF) (Cell Signalling Technology Inc.) and ATP in the appropriate assay buffer (Table 1). The reaction was allowed to proceed for 3 hours (FGFR3), 1 hour (VEGFR2, PDGFR-beta) at room temperature on a plate shaker at 700 rpm before being stopped with 35 mM EDTA, pH 8 (FGFR3, VEGFR2) or 55 mM EDTA, pH 8 (PDGFR-beta). 5× detection mix (50 mM HEPES pH 7.5, 0.1% BSA, 11.34 nM Eu-anti-pY (PY20) (PerkinElmer) 74 nM SA-XL665 (Cisbio) for FGFR3, 50 mM HEPES, pH 7.5, 0.1% BSA, 11.34 nM Eu-anti-pY (PY20), 187.5 nM SA-XL665 for VEGFR2 and 50 mM HEPES, pH 7.5, 0.1% BSA, 11.34 nM Eu-anti-pY (PT66) (PerkinElmer), 375 nM SA-XL665 (Cisbio) for PDGFR-beta) was then added to each well and the plate sealed and incubated at room temperature for one hour on a plate shaker at 700 rpm. The plate was then read on a Packard Fusion plate reader or a BMG Pherastar both in TRF mode.

[1] = system: parental wild-type Ba/F3 cells; assay: Ba/F3 (WT) cell proliferation assay (Alamar Blue); type: cell-based; details: BaF3, 72 hours, read-out: BaF3 WT prolif; for inhibition at 10 µM / inhibition at 3 µM: Mus musculus; for IC50: with mouse IL-3
Procedure: (§3) Ba/F3-TEL-FGFR3 & Ba/F3 (WT) Cell Proliferation Assays
(§4) Stably transfected Ba/F3-TEL-FGFR3 cells were plated out into black 96-well tissue culture plates with clear bottoms in RPMI medium containing 10% FBS and 0.25 mg/ml G418 at a density of 5×10^3 cells/well (200 μl per well). The parental wild-type Ba/F3 cells (DSMZ no.: ACC 300) were plated out into black 96-well tissue culture plates with clear bottoms in RPMI medium containing 10% FBS and 2 ng/ml mouse IL-3 (R&D Systems) at a density of 2.5×10^3 cells/well (200 μl per well). Plates were placed in an incubator overnight before adding the compounds the following day. Dilutions of compounds were made in DMSO starting at 10 mM and were diluted into the wells to give a final DMSO concentration of 0.1% in assay. Compounds were left on the cells for 72 hours before the plates were removed from the incubator and 20 μl of Alamar Blue™ (Biosource) was added to each well. Plates were placed in the incubator for 4-6 hours before reading plates at 535 nm (excitation)/590 nm (emission) on a Fusion plate reader (Packard). Where inhibition is high an IC50 can be determined.

FGFR3 = target: T2, FGFR3 (Homo sapiens, UniProt P22607); assay: FGFR3 in vitro kinase inhibitory activity assay (TRF); type: biochemical; details: 8 μM ATP, 3 hours; read-out: FGFR3 IC50(μM) or % I
T2 construct: purchased Upstate
T2 sequence (P22607 23-806): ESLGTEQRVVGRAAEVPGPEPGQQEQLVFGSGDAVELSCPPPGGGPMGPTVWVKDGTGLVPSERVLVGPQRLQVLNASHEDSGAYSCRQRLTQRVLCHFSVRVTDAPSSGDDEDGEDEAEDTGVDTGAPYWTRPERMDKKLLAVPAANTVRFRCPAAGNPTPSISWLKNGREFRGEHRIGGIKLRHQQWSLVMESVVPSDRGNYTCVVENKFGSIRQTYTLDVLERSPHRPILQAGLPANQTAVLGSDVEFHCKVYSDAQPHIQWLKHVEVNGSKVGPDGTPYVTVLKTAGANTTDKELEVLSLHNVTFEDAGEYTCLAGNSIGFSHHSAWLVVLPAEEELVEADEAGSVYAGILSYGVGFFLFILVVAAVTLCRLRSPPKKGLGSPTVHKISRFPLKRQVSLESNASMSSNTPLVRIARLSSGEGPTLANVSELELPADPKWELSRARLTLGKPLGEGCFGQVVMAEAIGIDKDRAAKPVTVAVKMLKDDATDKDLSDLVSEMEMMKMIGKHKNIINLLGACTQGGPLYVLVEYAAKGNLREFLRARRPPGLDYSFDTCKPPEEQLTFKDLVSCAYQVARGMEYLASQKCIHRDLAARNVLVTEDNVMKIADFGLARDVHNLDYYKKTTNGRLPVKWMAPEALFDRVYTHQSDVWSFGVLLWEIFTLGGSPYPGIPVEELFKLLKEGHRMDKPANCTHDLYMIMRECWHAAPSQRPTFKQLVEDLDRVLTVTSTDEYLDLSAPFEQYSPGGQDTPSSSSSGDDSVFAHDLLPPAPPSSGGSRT
Procedure: as §1, §2

Ba/F3-TEL-FGFR3 cells = target: T3, Ba/F3-TEL-FGFR3 cells (Homo sapiens, UniProt P22607); assay: Ba/F3-TEL-FGFR3 cell proliferation assay (Alamar Blue); type: cell-based; details: 72 hours; for BaF3-TEL-FGFR3 prolif (μM): % at 10.0 μM; for GI50: read-out: BaF3-TEL-FGFR3 prolif
T3 construct: fused on or other part: P41212 (Transcription factor ETV6)
T3 sequence (P22607 whole entry, change not shown, the tested form may be a part): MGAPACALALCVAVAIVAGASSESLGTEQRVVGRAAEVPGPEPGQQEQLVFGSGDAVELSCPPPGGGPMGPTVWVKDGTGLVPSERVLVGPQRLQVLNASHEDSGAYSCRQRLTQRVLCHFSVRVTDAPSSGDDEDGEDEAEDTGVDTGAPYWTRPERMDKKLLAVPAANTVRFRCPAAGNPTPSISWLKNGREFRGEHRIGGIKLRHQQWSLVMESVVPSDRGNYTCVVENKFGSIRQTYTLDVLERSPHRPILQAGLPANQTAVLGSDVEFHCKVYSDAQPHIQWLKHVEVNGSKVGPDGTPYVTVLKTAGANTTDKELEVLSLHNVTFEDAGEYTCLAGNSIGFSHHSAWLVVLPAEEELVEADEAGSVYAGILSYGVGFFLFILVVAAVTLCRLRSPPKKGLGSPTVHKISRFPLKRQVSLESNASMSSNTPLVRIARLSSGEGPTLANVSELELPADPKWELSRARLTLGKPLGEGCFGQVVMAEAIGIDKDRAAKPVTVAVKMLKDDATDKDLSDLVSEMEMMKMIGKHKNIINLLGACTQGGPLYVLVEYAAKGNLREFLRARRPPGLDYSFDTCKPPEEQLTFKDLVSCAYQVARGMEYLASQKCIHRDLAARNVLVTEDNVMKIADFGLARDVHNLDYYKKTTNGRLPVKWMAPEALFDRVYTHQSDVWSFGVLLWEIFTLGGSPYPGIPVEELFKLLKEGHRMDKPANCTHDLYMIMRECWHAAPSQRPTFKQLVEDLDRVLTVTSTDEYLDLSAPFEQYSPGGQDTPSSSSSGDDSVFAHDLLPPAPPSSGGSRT
Procedure: as §3, §4

T1 sequence (P35968 20-1356): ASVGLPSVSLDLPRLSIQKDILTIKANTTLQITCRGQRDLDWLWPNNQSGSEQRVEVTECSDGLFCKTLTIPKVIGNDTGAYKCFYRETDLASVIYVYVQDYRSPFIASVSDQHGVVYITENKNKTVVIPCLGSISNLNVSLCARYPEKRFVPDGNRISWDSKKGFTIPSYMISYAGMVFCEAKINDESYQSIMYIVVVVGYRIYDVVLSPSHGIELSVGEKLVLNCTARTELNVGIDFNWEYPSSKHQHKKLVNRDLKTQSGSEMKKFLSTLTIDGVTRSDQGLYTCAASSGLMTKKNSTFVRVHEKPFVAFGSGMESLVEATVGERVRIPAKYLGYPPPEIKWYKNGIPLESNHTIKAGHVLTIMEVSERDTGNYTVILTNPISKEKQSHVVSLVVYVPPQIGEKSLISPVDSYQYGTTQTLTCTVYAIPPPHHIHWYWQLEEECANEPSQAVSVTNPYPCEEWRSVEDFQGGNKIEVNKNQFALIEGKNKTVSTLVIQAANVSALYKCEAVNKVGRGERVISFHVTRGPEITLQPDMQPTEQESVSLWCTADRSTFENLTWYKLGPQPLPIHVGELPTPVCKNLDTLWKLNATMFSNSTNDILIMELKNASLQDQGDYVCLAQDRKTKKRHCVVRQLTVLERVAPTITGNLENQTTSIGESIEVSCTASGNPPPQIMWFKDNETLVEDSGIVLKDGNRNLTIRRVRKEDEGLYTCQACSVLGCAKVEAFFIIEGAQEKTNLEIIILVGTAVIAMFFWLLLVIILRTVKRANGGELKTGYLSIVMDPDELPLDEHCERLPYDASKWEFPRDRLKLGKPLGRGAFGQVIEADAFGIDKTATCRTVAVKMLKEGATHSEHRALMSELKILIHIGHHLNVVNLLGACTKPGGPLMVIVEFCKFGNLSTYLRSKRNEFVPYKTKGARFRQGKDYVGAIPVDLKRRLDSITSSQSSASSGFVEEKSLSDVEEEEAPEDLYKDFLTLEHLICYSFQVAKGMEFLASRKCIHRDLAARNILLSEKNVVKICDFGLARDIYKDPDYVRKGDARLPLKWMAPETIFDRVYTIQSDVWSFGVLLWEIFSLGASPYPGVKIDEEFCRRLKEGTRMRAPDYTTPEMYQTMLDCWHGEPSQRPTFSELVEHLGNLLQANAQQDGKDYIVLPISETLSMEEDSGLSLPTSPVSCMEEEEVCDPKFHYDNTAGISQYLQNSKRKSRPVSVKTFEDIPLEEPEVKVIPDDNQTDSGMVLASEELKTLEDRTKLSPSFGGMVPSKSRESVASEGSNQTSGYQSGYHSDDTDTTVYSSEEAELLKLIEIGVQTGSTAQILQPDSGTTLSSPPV

| IC50 (VEGFR2) | IC50 (FGFR3) | BaF3-TEL-FGFR3 prolif (μM) (Ba/F3-TEL-FGFR3 cells) | GI50 (Ba/F3-TEL-FGFR3 cells) | Structure (SMILES) | inhibition at 10 µM [1] | inhibition at 3 µM [1] | IC50 [1] |
| --- | --- | --- | --- | --- | --- | --- | --- |
| 0.29 µM | 0.019 µM | 43.0% at | – | O=C(NCC(F)(F)F)Nc1cccc(-c2cnc3cc(C(CC4CC4)=NO)ccn23)c1 [Compound 1-30, 1-[3-(7-{2-Cyclopropyl-1-hydroxyimino-ethyl}-imidazo[1,2-a]pyridin-3-yl)-phenyl]-3-(2,2,2-trifluoro-ethyl)-urea] | 20% | – | – |
| 0.26 µM | 0.038 µM | 60.0% at | – | CN1CCC(NCCCON=Cc2ccn3c(-c4cccc(NC(=O)NCC(F)(F)F)c4)cnc3c2)CC1 [Compound 1-34, 1-[3-(7-{[3-(1-Methyl-piperidin-4-ylamino)-propoxyimino]-methyl}-imidazo[1,2-a]pyridin-3-yl)-phenyl]-3-(2,2,2-trifluoro-ethyl)-urea] | 0% | – | – |
| 0.39 µM | 0.025 µM | – | 1300 nM | O=C(NCC(F)(F)F)Nc1cccc(-c2cnc3cc(C=NOCCCN4CCN(CCO)CC4)ccn23)c1 [Compound 1-39, 1-{3-[7-({3-[4-(2-Hydroxy-ethyl)-piperazin-1-yl]-propoxyimino}-methyl)-imidazo[1,2-a]pyridin-3-yl]-phenyl}-3-(2,2,2-trifluoro-ethyl)-urea] | – | 47% | – |
| 0.33 µM | 0.019 µM | – | 1400 nM | O=C(NCC(F)(F)F)Nc1cccc(-c2cnc3cc(C=NOCCC4CCN(CCO)CC4)ccn23)c1 [Compound 1-49, 1-{3-[7-({2-[1-(2-Hydroxy-ethyl)-piperidin-4-yl]-ethoxyimino}-methyl)-imidazo[1,2-a]pyridin-3-yl]-phenyl}-3-(2,2,2-trifluoro-ethyl)-urea] | – | 36% | – |
| 0.68 µM | 0.027 µM | – | 560 nM | CC(C)(C)c1nc(CON=Cc2ccn3c(-c4cccc(NC(=O)NCC(F)(F)F)c4)cnc3c2)no1 [Compound 1-14, 1-(3-{7-[(5-tert-Butyl-[1,2,4]oxadiazol-3-ylmethoxyimino)-methyl]-imidazo[1,2-a]pyridin-3-yl}-phenyl)-3-(2,2,2-trifluoro-ethyl)-urea] | – | 43% | – |
| 0.81 µM | 0.035 µM | – | 480 nM | COCCNCCON=Cc1ccn2c(-c3cccc(NC(=O)NCC(F)(F)F)c3)cnc2c1 [Compound 1-53, 1-[3-(7-{[2-(2-Methoxy-ethylamino)-ethoxyimino]-methyl}-imidazo[1,2-a]pyridin-3-yl)-phenyl]-3-(2,2,2-trifluoro-ethyl)-urea] | – | – | 13000 nM |
| 0.682 µM | 0.018 µM | – | 310 nM | O=C(NCC(F)(F)F)Nc1cccc(-c2cnc3cc(C=NOCCCN4CCOCC4)ccn23)c1 [Compound 1-3, 1-(3-{7-[(3-Morpholin-4-yl-propoxyimino)-methyl]-imidazo[1,2-a]pyridin-3-yl}-phenyl)-3-(2,2,2-trifluoro-ethyl)-urea] | – | – | 2800 nM |
| 0.36 µM | 0.024 µM | – | 380 nM | COC1CCN(CCCON=Cc2ccn3c(-c4cccc(NC(=O)NCC(F)(F)F)c4)cnc3c2)CC1 [Compound 1-36, 1-[3-(7-{[3-(4-Methoxy-piperidin-1-yl)-propoxyimino]-methyl}-imidazo[1,2-a]pyridin-3-yl)-phenyl]-3-(2,2,2-trifluoro-ethyl)-urea] | – | 34% | – |
| 0.27 µM | 0.019 µM | – | 140 nM | CN1CCC(ON=Cc2ccn3c(-c4cccc(NC(=O)NCC(F)(F)F)c4)cnc3c2)CC1 [Compound 1-10, 1-(3-{7-[(1-Methyl-piperidin-4-yloxyimino)-methyl]-imidazo[1,2-a]pyridin-3-yl}-phenyl)-3-(2,2,2-trifluoro-ethyl)-urea] | – | – | 2800 nM |
| 0.051 µM | 0.0035 µM | – | 110 nM | C/C(=N\OCCO)c1ccn2c(-c3cccc(NC(=O)NCC(F)(F)F)c3)cnc2c1 [Compound 1-62, 1-[3-(7-{1-2-Hydroxy-ethoxyimino-ethyl}-imidazo[1,2-a]pyridin-3-yl)-phenyl]-3-(2,2,2-trifluoro-ethyl)-urea] | 45% | – | – |
